Results on seven compounds are retold here after EP0513240B1, “LIQUID HARD SURFACE DETERGENT COMPOSITIONS CONTAINING ZWITTERIONIC DETERGENT SURFACTANT AND MONOETHANOLAMINE AND/OR BETA-AMINOALKANOL” (THE PROCTER & GAMBLE COMPANY, priority 1990, dated 1991).

Data set [1] can be described thus: Solubility of selected diols in 20°C water. Type of data set: physicochemical. The note with it: determined via laboratory measurements (values marked *). On the procedure:
A particularly preferred type of solvent for these hard surface cleaner compositions comprises diols having from 6 to 16 carbon atoms in their molecular structure. Preferred diol solvents have a solubility in water of from about 0.1 to about 20 g/100 g of water at 20°C.

For data set [2] the following is noted: in 20°C water; values from published literature; cited from earlier work.

Like-named read-outs stand apart in the source and are kept apart here. Marks after values point to notes of the source that are not given here.

As to `CC(O)(CO)c1ccccc1` (stereo not shown) [2-Phenyl-1,2-propanediol], in data set [1], the Solubility is listed as 12.0* g/100g H2O.
For `OCC1CCC(CO)CC1` (stereo not shown) [1,4-Cyclohexanedimethanol], the Solubility in data set [1] is given as 20.0* g/100g H2O.
In the case of `CC(C)(O)CCC(C)(C)O` [2,5-Dimethyl-2,5-hexanediol], the Solubility in data set [2] is 14.3 g/100g H2O.
Regarding `CCCCCCC(O)CO` (stereo not shown) [1,2-Octanediol], the Solubility in data set [1] is given as 1.0* g/100g H2O.
`CC(C)C(O)C(C)(C)CO` (stereo not shown) [2,2,4-Trimethyl-1,3-pentanediol]: the Solubility in data set [2] is 1.9 g/100g H2O.
As to `CCCC(O)C(CC)CO` (stereo not shown) [2-Ethyl-1,3-hexanediol], the Solubility in data set [2] is recorded as 4.2 g/100g H2O.
`OCC(O)c1ccccc1` (stereo not shown) [Phenyl-1,2-ethanediol]: in data set [1], the Solubility is on record as 12.0* g/100g H2O.
